PMC9344678, “BTApep-TAT peptide inhibits ADP-ribosylation of BORIS to induce DNA damage in cancer” (Molecular Cancer, 2022)
Where no end group is shown, it is not given here.

What was measured:
[1] = tested on: BORIS; experiment: ADP ribosylation of BORIS under olaparib; type: cell-based; conditions: PARP inhibitor incubation
Description: HeLa or H1299 cells were lysed in immunoprecipitation (IP) buffer (50 mM Tris–HCl pH 7.4, 150 mM NaCl, 1% NP-40, 1 mM EDTA, 5% glycerol) containing protease inhibitor cocktails. The cell lysates were incubated with mouse anti-Myc (CST, 2276) or rabbit anti-poly/mono-ADP Ribose (E6F6A) monoclonal antibody (CST, 83732) on a rotary shaker at 4 °C overnight. Mouse or rabbit IgG (Santa Cruz, sc-2025 or sc2027) was used as a negative control for detecting the pull-down specificity. Protein G beads (Santa Cruz, sc-2001) or protein A beads (Santa Cruz, sc-2002) were added and incubated at room temperature for 2 h. The agarose beads were collected by centrifugation, washed five times with IP buffer according to the manufacturer’s instructions, and eluted in SDS sample buffer for the subsequent Western blotting assay.

[2] = tested on: PARP2; conditions: ref [33], [49]; cited from earlier work
[3] = tested on: BORIS-N198-228 peptide; experiment: PARP1-catalyzed in vitro PARylation assay; type: biochemical; conditions: recombinant PARP1, ssDNA, 37 °C 30 min, dot blot anti-ADPr
Description: Peptides (1–4 μg) incubated with different samples were added to 50 μL PARP1 reaction buffer (50 mM Tris–HCl at pH 7.4, 2 mM MgCl2, 200 μM NAD^+), which contained 0.2 μg of recombinant PARP1 (Trevigen, 4668–100-01) and 2.5 μg of ssDNA (Sigma, D8899), and reaction was carried out at 37 °C for 30 min. Low molecular weight peptide and PARP1 protein in the reactions were separated by a 30 kDa cutoff centrifugal filter (Millipore, UFC803096). Then, SDS loading buffer was added to separate peptides or proteins and analyzed by dot blotting using an anti- ADP ribosylation (ADPr) antibody.
To further confirm ADP ribosylation at residues 198–228, the synthesized BORIS-N198-228 peptide was subjected to a PARP1-catalyzed in vitro PARylation assay. Single-strand DNA (ssDNA) was added to activate PARP1. The BORIS-N198-228 peptide was separated by centrifugal filtration, and its PARylation levels were examined by dot blotting using an anti-ADPr antibody. […] To determine the modification between residues 198–228, the BORIS-N198-228 peptide was pre-incubated with BTApep-TAT or His-TAT before processing for PARP1-catelyzed in vitro PARylation. […] Taken together, we provided evidence that ADP ribosylation of BORIS was responsible for the association with Ku70 and DNA repair. […]

[4] = tested on: H1299 cells; experiment: Proliferation of H1299 cells (MTT, cell counting); type: cell-based; conditions: 25 µM (Fig. 2D)
Description: (§1) H1299 cells (RRID: CVCL_0060) were cultured in RPMI 1640 medium supplemented with 10% FBS. HEK293 (RRID:CVCL_0045) and HeLa (RRID:CVCL_0030) cells were cultured in Dulbecco's modified Eagle’s medium (DMEM) supplemented with 10% FBS and placed in 37 ℃ and 5% CO2 incubators. Cells were seeded in 6-well plates at 1 × 10^5 cells/well or in 96-well plates at 2000 cells/well for experiments. Cell viability was measured by MTT assay.
(§2) Cells were plated and treated with BORIS-targeted peptide (BTApep-TAT) or negative control peptide (His-TAT) at concentrations of 10 µM, 25 µM, 50 µM and 100 µM for 3 days. Cell viability was measured by MTT assay. Cell apoptosis was measured by TUNEL assay (cat. # 40306ES20, Yeasen Biotech Co., Ltd) and Caspase-Glo 3/7 assay (G8090, Promega Corporation, an affiliate of Promega (Beijing) Biotech Co., Ltd.).

[5] = tested on: HEK293 cells; experiment: Proliferation of HEK293 cells; type: cell-based; conditions: 25 µM (Fig. 2D); normal cells not expressing BORIS
Description: as §1, §2

[6] = molecular target: T1, BORIS-N1-258 (Homo sapiens, UniProt Q8NI51); experiment: BLI, BORIS-N1-258 immobilized on SSA sensor, free peptide in solution; type: binding; conditions: free peptide in PBS with 0.02% Tween 20
T1 construct: The N terminal section of BORIS corresponding to AA 1–258 (BORIS-N1-258); 6xHis (C); made in house
T1 sequence (Q8NI51 1-258): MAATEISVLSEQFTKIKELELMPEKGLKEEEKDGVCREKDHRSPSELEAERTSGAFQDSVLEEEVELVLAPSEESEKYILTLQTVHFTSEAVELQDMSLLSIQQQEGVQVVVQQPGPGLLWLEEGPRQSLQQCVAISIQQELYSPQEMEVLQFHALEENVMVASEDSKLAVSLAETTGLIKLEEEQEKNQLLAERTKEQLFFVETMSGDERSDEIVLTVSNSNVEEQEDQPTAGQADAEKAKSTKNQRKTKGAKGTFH
Description: Twelve tandemly connected His was synthesized and conjugated with biotin or FITC as a negative control peptide by China Peptides Co., Ltd. The peptides were stored in powder at -80 °C. The peptides were dissolved in phosphate-buffered saline and filtered through a 0.22 µm filter to remove bacteria before use. The interaction between peptides and BORIS-N1-258 was measured by Bio-layer interferometry (BLI) in the ForteBio OctetRed system. The measurement was carried out in 5 steps: initial baseline duration, loading duration, baseline duration, association duration, and dissociation duration. In loading duration, 10 nM biotinylated peptides or 1 µM BORIS-N1-258 protein were immobilized on streptavidin-coated biosensors (ForteBio). The immobilization typically reached a response level of 4 nm. Association and dissociation curves were obtained through the addition of a dilution series of BORIS-N1-258 or peptides in PBS with 0.02% Tween 20 for the indicated period of time using Octet acquisition software. The binding data were fitted using Octet analysis software.
The BORIS-N1-258 protein was conjugated with biotin and loaded onto an SSA sensor. The synthesized peptides were dissolved in PBS with 0.02% Tween 20.

[7] = molecular target: T2, BORIS N-terminal region AA 1-258 (BORIS-N_(1-258)), His-tagged, from bacteria (human, UniProt Q8NI51 1-258, biotin (conjugated for loading onto the SSA sensor; position not stated; not said of the protein used free in solution or coated on plates)); experiment: BLI; ForteBio OctetRed; biotin-labeled peptide 9 loaded onto an SA sensor (10 nM in loading), dilution series of BORIS-N_(1-258) in PBS with 0.02% Tween 20; conditions: both partners purified
T2 construct: Cloned in the backbone of plasmid pFN6K; also called BORIS antigen; not shown: His6, C-terminal, kept
T2 sequence (looked up): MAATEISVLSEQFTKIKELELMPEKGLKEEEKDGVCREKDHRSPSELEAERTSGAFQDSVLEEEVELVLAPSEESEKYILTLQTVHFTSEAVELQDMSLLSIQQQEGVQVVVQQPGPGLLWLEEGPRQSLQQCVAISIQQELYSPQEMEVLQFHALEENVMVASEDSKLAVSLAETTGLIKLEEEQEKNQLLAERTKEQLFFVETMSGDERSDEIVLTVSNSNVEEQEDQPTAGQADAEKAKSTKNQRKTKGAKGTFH

[8] = molecular target: T3, BORIS-N_(1-258) expressed and purified from HEK293 cells (human, UniProt Q8NI51 1-258); experiment: as above; conditions: both partners purified
T3 construct: source: HEK293 cells, expressed and purified
T3 sequence (looked up): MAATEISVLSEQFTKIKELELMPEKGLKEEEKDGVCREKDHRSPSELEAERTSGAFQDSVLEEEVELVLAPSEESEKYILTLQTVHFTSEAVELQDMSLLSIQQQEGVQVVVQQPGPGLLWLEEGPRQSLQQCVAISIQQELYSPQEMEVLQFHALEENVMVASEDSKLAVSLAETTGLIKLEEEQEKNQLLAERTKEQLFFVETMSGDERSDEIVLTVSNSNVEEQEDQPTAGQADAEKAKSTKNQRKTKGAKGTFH

[9] = molecular target: T2, BORIS N-terminal region AA 1-258 …; experiment: BLI; ForteBio OctetRed; biotin-conjugated BORIS-N_(1-258) loaded onto an SSA sensor (1 µM in loading), free peptide in solution in PBS with 0.02% Tween 20; conditions: both partners purified
[10] = molecular target: T2, BORIS N-terminal region AA 1-258 …; experiment: ELISA; plates coated overnight at 4 °C with purified His-tagged BORIS-N_(1-258) (carbonate buffer, pH 9.6); purified phage clones in serial dilutions, 2 h at RT; detection by HRP-conjugated anti-M13 antibody; conditions: both partners purified

Molecule: O=C(c1cc(Cc2n[nH]c(=O)c3ccccc23)ccc1F)N1CCN(C(=O)C2CC2)CC1 [Olaparib, olaparib]
- effect on ADP ribosylation of BORIS [1]: did not attenuate ADP ribosylation of BORIS
- inhibition of PARP2 [2]: inhibits

Molecule: BORIS-N198-228 peptide: synthesized peptide of BORIS residues 198–228 (EQLFFVETMSGDERSDEIVLTVSNSNVEEQE; UniProt Q8NI51 198-228, looked up, fragment)
- PARylation of the peptide itself [3]: accumulated in proportion to its abundance

Molecule: BTApep: BORIS-targeted peptide lacking the TAT penetrating peptide (VHWDFRQWWQPS)
- suppression of proliferation of H1299 cells [4]: did not inhibit cell proliferation
- suppression of proliferation of HEK293 cells [5]: did not inhibit cell proliferation

Molecule: DWSSWVYRDPQT [Peptide 2]
- Kd ([6]; bacterial BORIS-N1-258 on SSA sensor, read-out: binding affinity (Kd)): 315 µM

Molecule: RFDHWVWQSQPW [Scrambled peptide 9]
- affinity in BLI ([6]; result in words, BORIS-N1-258 on SSA sensor): did not have any measurable affinity

B1: Peptide 9 labeled with biotin (peptide)
peptide: VHWDFRQWWQPS
modifications: also: biotin (position not given here)
notes: 12-mer selected from the Ph.D.-12 phage display peptide library; also called BTApep-biotin; biotinylated peptide 9; source: synthetic peptide (China Peptides Co., Ltd.)
- Kd [7]: 0.0053 µM
- Kd [8]: 0.00637 µM

B2: Peptide 2 (peptide)
peptide: DWSSWVYRDPQT
notes: 12-mer selected from the Ph.D.-12 phage display peptide library; source: synthetic peptide (China Peptides Co., Ltd.)
- Kd [9]: 314 µM

B3: Peptide 9 (synthesized, free in solution) (peptide)
peptide: VHWDFRQWWQPS
notes: 12-mer selected from the Ph.D.-12 phage display peptide library; The methods say that the peptides were synthesized and conjugated with biotin or FITC; also called peptide from phage clone 9; BTApep; source: synthetic peptide (China Peptides Co., Ltd.)
- Kd [9]: 86.4 µM

B4: Phage clone 9 (peptide 9 displayed on phage) (peptide)
chain: VHWDFRQWWQPSGGGS
notes: 4 amino acid spacer that links the 12-mer to the N-terminus of a phage coat protein; Whole phage particle; source: purified phage clone from the Ph.D.-12 Phage Display Peptide Library (New England Biolabs); not shown: phage coat protein (Ph.D.-12 library), C-terminal, kept
- binding result [10]: binds
